How the values were obtained:
[1] = Volume of distribution in Sprague-Dawley rat at 1 mg/kg, iv; settings: in vivo
[2] = Half life in Sprague-Dawley rat at 1 mg/kg, iv; settings: in vivo
[3] = Clearance in Sprague-Dawley rat at 1 mg/kg, iv; settings: in vivo
CYP3A4 = CYP3A4 (Homo sapiens, UniProt P08684); assay: Inhibition of human CYP3A4 at 10 uM; format: ADME
CYP1A2 = biological target: T1, CYP1A2 (Homo sapiens, UniProt P05177); assay: Inhibition of human CYP1A2 at 10 uM; format: ADME
T1 sequence (P05177 whole entry): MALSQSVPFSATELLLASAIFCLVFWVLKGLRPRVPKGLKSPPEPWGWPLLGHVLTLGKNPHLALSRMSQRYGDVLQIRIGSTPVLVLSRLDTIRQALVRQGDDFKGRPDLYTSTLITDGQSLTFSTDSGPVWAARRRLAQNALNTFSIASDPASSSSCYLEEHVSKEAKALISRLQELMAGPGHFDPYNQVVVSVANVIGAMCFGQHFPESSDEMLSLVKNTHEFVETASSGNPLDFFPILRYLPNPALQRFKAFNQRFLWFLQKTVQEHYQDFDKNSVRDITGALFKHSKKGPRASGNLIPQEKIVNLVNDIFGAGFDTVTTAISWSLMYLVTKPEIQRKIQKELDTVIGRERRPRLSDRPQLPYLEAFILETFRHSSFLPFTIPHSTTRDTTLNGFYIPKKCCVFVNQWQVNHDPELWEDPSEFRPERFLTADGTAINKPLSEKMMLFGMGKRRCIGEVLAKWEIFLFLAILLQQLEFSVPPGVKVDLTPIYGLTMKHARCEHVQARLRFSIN

CYP2D6 = CYP2D6 (Homo sapiens, UniProt P10635); assay: Inhibition of human CYP2D6 at 10 uM; format: ADME
CYP2C9 = CYP2C9 (Homo sapiens, UniProt P11712); assay: Inhibition of human CYP2C9 at 10 uM; format: ADME
in vivo [4] = settings: Sprague-Dawley, rat, plasma, iv, 1 mg/kg
in vivo [5] = settings: Sprague-Dawley, rat, po, 2 mg/kg
[6] = biological target: RAC-alpha serine/threonine-protein kinase (Homo sapiens, UniProt P31749); assay: Inhibition of AKT1 after 55 mins
[7] = biological target: Rho-associated protein kinase 2 (Homo sapiens, UniProt O75116); assay: Inhibition of ROCK2
[8] = Inhibition of myosin light chain bisphosphorylation in rat A7r5 cells after 1 hr

CYP2D6, sequence (P10635 whole entry): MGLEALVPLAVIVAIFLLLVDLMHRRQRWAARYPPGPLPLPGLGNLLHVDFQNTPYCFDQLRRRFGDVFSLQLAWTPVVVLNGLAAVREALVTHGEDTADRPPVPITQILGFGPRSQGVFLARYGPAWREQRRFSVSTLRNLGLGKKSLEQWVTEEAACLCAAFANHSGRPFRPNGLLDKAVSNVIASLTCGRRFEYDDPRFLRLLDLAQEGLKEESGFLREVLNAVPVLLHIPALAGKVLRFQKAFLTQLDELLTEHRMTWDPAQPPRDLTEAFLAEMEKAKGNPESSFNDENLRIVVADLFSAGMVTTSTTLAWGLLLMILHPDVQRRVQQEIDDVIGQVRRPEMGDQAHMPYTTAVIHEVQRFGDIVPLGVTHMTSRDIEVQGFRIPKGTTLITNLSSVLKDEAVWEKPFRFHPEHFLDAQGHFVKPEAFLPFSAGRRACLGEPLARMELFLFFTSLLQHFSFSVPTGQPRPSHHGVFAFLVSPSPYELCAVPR
Rho-associated protein kinase 2, sequence (O75116 whole entry): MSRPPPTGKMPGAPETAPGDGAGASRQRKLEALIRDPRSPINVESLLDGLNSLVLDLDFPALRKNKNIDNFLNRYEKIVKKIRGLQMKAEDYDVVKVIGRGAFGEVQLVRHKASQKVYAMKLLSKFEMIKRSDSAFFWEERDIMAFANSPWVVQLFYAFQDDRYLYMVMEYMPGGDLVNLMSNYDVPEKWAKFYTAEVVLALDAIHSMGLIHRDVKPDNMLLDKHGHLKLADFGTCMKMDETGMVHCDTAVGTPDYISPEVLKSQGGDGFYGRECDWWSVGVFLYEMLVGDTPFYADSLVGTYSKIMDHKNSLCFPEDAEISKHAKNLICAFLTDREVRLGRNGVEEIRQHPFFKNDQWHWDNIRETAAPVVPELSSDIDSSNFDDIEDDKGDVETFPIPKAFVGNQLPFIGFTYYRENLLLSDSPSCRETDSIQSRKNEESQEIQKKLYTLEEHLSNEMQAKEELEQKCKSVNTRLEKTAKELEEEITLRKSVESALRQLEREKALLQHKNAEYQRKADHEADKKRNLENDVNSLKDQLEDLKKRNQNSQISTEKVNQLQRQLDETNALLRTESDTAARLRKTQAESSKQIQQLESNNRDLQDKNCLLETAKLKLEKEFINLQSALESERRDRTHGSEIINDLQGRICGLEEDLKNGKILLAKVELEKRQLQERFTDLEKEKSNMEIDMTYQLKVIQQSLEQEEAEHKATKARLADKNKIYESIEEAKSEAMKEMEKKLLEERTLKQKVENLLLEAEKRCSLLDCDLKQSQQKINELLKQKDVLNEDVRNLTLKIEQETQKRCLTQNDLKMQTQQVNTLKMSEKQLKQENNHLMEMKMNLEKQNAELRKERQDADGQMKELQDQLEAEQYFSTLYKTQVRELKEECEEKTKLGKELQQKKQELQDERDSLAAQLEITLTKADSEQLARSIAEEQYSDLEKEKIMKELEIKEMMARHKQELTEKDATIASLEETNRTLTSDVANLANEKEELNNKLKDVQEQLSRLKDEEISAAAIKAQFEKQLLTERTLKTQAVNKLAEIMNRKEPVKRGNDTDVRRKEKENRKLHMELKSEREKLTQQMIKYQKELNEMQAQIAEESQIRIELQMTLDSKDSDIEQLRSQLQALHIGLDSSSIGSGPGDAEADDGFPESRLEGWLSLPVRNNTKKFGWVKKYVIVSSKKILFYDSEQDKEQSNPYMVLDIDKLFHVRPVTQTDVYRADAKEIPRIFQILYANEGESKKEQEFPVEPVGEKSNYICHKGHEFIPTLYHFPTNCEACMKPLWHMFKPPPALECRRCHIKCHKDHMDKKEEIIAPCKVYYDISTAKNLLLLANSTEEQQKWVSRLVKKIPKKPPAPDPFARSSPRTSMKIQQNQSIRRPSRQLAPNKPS
CYP2C9, sequence (P11712 whole entry): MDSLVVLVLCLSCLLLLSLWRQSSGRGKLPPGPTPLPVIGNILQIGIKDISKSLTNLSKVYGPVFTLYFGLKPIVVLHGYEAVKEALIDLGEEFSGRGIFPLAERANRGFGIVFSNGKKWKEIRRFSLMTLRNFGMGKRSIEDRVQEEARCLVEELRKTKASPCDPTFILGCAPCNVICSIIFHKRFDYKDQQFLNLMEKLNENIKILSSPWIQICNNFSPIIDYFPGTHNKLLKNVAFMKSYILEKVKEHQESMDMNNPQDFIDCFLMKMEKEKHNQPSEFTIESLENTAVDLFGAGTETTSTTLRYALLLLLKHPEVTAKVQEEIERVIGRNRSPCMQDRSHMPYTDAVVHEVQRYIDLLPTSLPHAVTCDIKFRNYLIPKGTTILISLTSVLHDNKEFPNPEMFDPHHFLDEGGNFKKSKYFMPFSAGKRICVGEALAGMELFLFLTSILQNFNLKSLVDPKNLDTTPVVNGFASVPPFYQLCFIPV
CYP3A4, sequence (P08684 whole entry): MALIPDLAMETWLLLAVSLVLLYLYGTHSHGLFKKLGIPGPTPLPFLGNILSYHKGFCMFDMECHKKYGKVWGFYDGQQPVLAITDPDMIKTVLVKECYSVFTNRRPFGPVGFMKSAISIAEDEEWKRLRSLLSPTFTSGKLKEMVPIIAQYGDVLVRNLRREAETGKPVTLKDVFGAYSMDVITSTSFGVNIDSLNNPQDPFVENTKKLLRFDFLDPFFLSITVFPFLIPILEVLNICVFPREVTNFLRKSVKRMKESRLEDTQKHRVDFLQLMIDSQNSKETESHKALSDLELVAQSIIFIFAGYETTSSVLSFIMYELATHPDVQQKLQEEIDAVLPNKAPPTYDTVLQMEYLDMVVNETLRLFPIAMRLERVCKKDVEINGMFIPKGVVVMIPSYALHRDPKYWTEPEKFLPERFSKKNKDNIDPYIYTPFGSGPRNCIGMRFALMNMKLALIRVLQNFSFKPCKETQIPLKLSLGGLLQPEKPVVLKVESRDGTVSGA
RAC-alpha serine/threonine-protein kinase, sequence (P31749 whole entry): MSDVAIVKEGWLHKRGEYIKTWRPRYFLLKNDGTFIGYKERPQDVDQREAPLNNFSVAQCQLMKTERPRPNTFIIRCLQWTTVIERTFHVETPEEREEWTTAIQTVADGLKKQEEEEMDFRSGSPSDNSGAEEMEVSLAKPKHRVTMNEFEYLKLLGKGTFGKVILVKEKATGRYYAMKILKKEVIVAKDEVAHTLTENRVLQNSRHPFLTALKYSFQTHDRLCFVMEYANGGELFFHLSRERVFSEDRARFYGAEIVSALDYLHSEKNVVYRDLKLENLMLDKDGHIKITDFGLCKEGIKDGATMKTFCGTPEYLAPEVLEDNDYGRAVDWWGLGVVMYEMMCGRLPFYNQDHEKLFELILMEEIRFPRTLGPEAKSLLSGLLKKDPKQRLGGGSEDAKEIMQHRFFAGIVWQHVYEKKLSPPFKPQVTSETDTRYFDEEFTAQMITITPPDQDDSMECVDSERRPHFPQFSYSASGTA

| SMILES | Vd [1] [L/kg] | half-life [2] [h] | clearance [3] [mL/min/kg] | inhibition at 10 µM (CYP3A4) [%] | inhibition at 10 µM (CYP1A2) [%] | inhibition at 10 µM (CYP2D6) [%] | inhibition at 10 µM (CYP2C9) [%] | AUC (in vivo [4]) [µM·h] | Cmax (in vivo [5]) [nM] | IC50 [6] [nM] | IC50 [7] [nM] | IC50 [8] [nM] |
| --- | --- | --- | --- | --- | --- | --- | --- | --- | --- | --- | --- | --- |
| CN(C)CCOc1cc(-c2cn[nH]c2)ccc1N |  |  |  |  |  |  |  |  |  |  | 920 |  |
| CC(=O)Nc1ccc(-c2cn[nH]c2)cc1OCCN(C)C |  |  |  |  |  |  |  |  |  |  | 760 |  |

Continued, values first:

| Vd [1] [L/kg] | half-life [2] [h] | clearance [3] [mL/min/kg] | inhibition at 10 µM (CYP3A4) [%] | inhibition at 10 µM (CYP1A2) [%] | inhibition at 10 µM (CYP2D6) [%] | inhibition at 10 µM (CYP2C9) [%] | AUC (in vivo [4]) [µM·h] | Cmax (in vivo [5]) [nM] | IC50 [6] [nM] | IC50 [7] [nM] | IC50 [8] [nM] | SMILES |
| --- | --- | --- | --- | --- | --- | --- | --- | --- | --- | --- | --- | --- |
| 5.3 | 0.5 | 161 | 51 | 23 | 33 | 64 | 0.3 |  |  |  |  | O=C(Nc1ccc(-c2ccncc2)cc1)C1COc2ccccc2O1 (stereo unspecified) |
| 1.9 | 2.2 | 18 | 1 | 20 | 40 | 87 | 2.8 | 20 |  |  |  | O=C(Nc1ccc(-c2c[nH]cn2)cc1)C1COc2ccccc2O1 (stereo unspecified) |
| 1 | 2.6 | 11 | 36 | 92 | 79 | 93 | 4.3 | 120 | 8820 | 3.3 |  | COc1cc(-c2cn[nH]c2)ccc1NC(=O)C1COc2ccccc2O1 (stereo unspecified) |
| 3.7 | 0.4 | 181 | 80 | 90 | 94 | 96 | 0.3 |  | > 20000 | 7.2 | 137 | O=C(Nc1nc(-c2ccncc2)cs1)C1COc2ccccc2O1 (stereo unspecified) |

Source: ChEMBL document CHEMBL1142492 (J Med Chem, 2008)
